In the test the target is T1, DLK (Homo sapiens, UniProt Q12852).
T1 sequence (Q12852 1-520): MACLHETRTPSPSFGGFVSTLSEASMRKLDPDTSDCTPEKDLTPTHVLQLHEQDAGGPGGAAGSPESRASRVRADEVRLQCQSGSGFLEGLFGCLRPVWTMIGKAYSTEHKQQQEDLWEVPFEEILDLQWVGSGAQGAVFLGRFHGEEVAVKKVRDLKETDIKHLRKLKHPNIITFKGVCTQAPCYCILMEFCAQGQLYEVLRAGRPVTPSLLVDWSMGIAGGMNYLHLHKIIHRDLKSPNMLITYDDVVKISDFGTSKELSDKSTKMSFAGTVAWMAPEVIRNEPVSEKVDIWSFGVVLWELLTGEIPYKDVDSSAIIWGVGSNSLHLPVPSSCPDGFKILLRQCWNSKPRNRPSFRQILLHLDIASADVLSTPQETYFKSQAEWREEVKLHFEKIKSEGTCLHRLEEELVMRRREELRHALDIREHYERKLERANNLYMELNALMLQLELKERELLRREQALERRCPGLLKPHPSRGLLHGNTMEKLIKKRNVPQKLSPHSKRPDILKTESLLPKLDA
To be noted: read-out: DLK (Ki) μM; TR-FRET; 5 nM GST-tagged DLK (catalytic domain aa 1-520), 40 nM HIS-MKK4 K131M substrate, 30 μM ATP, 60 minutes. Background: In TR-FRET formats the signal depends on donor and acceptor labels being close together.

The term Ki denotes the equilibrium dissociation constant of an inhibitor or competing ligand from its target. For `CC(C)c1cc(-c2cnc3[nH]cc(C(F)(F)F)c3c2)nn1C1CN(C2COC2)C1` [Compound 1, 5-(5-isopropyl-1-(1-(oxetan-3-yl)azetidin-3-yl)-1H-pyrazol-3-yl)-3-(trifluoromethyl)-1H-pyrrolo[2,3-b]pyridine], the Ki worked out at 0.034 µM.

As to `CC(C)n1nc(-c2cnc(N)c(C(F)(F)F)c2)cc1C(C)(C)O` [Compound 2, 2-(3-(6-amino-5-(trifluoromethyl)py-ridin-3-yl)-1-isopropyl-1H-pyrazol-5-yl)propan-2-ol], the Ki is 0.11 µM.

Regarding `CC(C)n1nc(-c2cnc(N)c(OC(F)F)c2)cc1C(C)(C)O` [Compound 3, 2-(3-(6-amino-5-(difluoromethoxy)pyridin-3-yl)-1-isopropyl-1H-pyrazol-5-yl)propan-2-ol], the Ki was 0.14 µM.

`CC(C)n1nc(-c2cnc(N)c(C(F)(F)F)c2)cc1C(C)(C)C#N` [Compound 4, 2-(3-(6-amino-5-(trifluoromethyl)pyridin-3-yl)-1-isopropyl-1H-pyrazol-5-yl)-2-methylpropanenitrile]: the Ki was 0.78 µM.

For the molecule `CC(C)n1nc(-c2cnc(N)c(OC(F)(F)F)c2)cc1C(C)(C)C#N` [Compound 6, 2-(3-(6-amino-5-(trifluoromethoxy)pyridin-3-yl)-1-isopropyl-1H-pyrazol-5-yl)-2-methylpropanenitrile], the Ki worked out at 0.14 µM.

As for `CC(=O)N1CC(c2cc(-c3cnc4[nH]cc(C(F)(F)F)c4c3)nn2CC2CC2)C1` [Compound 8, 1-(3-(1-(cyclopropylmethyl)-3-(3-(trifluoromethyl)-1H-pyrrolo[2,3-b]pyridin-5-yl)-1H-pyrazol-5-yl)azetidin-1-yl)ethanone], the Ki turned out to be 0.01 µM.

`CC(=O)N1CC(c2cc(-c3cnc4[nH]cc(C)c4c3)nn2CC2CC2)C1` [Compound 9, 1-(3-(1-(cyclopropylmethyl)-3-(3-meth-yl-1H-pyrrolo[2,3-b]pyridin-5-yl)-1H-pyrazol-5-yl)azetidin-1-yl)ethan-one]: the Ki came out at 0.076 µM.

Take `CC(=O)N1CC(c2cc(-c3cnc4[nH]cc(C(F)(F)F)c4c3)nn2C(C)C)C1` [Compound 10, 1-(3-(1-isopropyl-3-(3-(trifluorometh-yl)-1H-pyrrolo[2,3-b]pyridin-5-yl)-1H-pyrazol-5-yl)azetidin-1-yl)ethan-one]: the Ki came to 0.0064 µM.

Regarding `CC(=O)N1CC(c2cc(-c3cnc4[nH]cc(C(F)(F)F)c4c3)nn2C)C1` [Compound 11, 1-(3-(1-methyl-3-(3-(trifluoromethyl)-1H-pyrrolo[2,3-b]pyridin-5-yl)-1H-pyrazol-5-yl)azetidin-1-yl)ethanone], the Ki was determined as 0.034 µM.

`CC(=O)N1CC(c2cc(-c3cnc4[nH]cc(C)c4c3)nn2C(C)C)C1` [Compound 12, 1-(3-(1-isopropyl-3-(3-methyl-1H-pyrrolo[2,3-b]pyridin-5-yl)-1H-pyrazol-5-yl)azetidin-1-yl)ethanone]: the Ki is 0.026 µM.

With `FC(F)(F)c1c[nH]c2ncc(-c3cc(C4CCOC4)n(C4CCOC4)n3)cc12` (stereo not shown) [Compound 15, 5-(1,5-bis(tetrahydrofuran-3-yl)-1H-pyrazol-3-yl)-3-(trifluoromethyl)-1H-pyrrolo[2,3-b]pyridine], the Ki came to 0.035 µM.

As for `FC1(F)CCC(n2nc(-c3cnc4[nH]cc(C(F)(F)F)c4c3)cc2C2CCOC2)C1` (stereo not shown) [Compound 16, 5-(1-(3,3-difluorocyclopentyl)-5-(tetrahydrofuran-3-yl)-1H-pyrazol-3-yl)-3-(trifluoromethyl)-1H-pyrrolo[2,3-b]pyridine], the Ki is 0.013 µM.

Turning to `Cc1c[nH]c2ncc(-c3cc(C4CCOC4)n(C4CC(F)(F)C4)n3)cc12` (stereo not shown) [Compound 19, 5-(1-(3,3-difluorocyclobutyl)-5-(tetrahydrofuran-3-yl)-1H-pyrazol-3-yl)-3-methyl-1H-pyrrolo[2,3-b]pyridine], the Ki amounted to 0.082 µM.

Consider `CCc1c[nH]c2ncc(-c3cc(C4CCOC4)n(C4CC(F)(F)C4)n3)cc12` (stereo not shown) [Compound 20, 5-(1-(3,3-difluorocyclobutyl)-5-(tetra-hydrofuran-3-yl)-1H-pyrazol-3-yl)-3-ethyl-1H-pyrrolo[2,3-b]pyridine], for which the Ki was found to be 0.025 µM.

Regarding `Nc1ncc(-c2cc(C3CCOC3)n(C3CCC(F)(F)C3)n2)cc1Cl` (stereo not shown) [Compound 23, 3-chloro-5-(1-(3,3-difluorocyclopent-yl)-5-(tetrahydrofuran-3-yl)-1H-pyra-zol-3-yl)pyridin-2-amine], the Ki stood at 0.35 µM.

With `Nc1ncc(-c2cc(C3CCOC3)n(C3CC(F)(F)C3)n2)cc1Cl` (stereo not shown) [Compound 25, 3-chloro-5-(1-(3,3-difluorocyclobut-yl)-5-(tetrahydrofuran-3-yl)-1H-pyra-zol-3-yl)pyridin-2-amine], the Ki worked out at 0.55 µM.

For `Cc1c[nH]c2ncc(-c3cc(C4CCOCC4)n(C4CC(F)(F)C4)n3)cc12` [Compound 35, 5-(1-(3,3-difluorocyclobutyl)-5-(tetra-hydro-2H-pyran-4-yl)-1H-pyrazol-3-yl)-3-methyl-1H-pyrrolo[2,3-b]pyri-dine], the Ki was 0.1 µM.

Take `FC1(F)CC(n2nc(-c3cnc4[nH]cc(C(F)(F)F)c4c3)cc2C2CCOCC2)C1` [Compound 38, 5-(1-(3,3-difluroocyclobutyl)-5-(tetra-hydro-2H-pyran-4-yl)-1H-pyrazol-3-yl)-3-(trifluoromethyl)-1H-pyrrolo [2,3-b]pyridine]: the Ki turned out to be 0.058 µM.

Take `Nc1ncc(-c2cc(C3CCOCC3)n(C3CC(F)(F)C3)n2)cc1Cl` [Compound 39, 3-chloro-5-(1-(3,3-difluorocyclobut-yl)-5-(tetrahydro-2H-pyran-4-yl)-1H-pyrazol-3-yl)pyridin-2-amine]: the Ki was found to be 0.46 µM.

For the molecule `CC(C)n1nc(-c2cnc3[nH]cc(C(F)(F)F)c3c2)cc1C1CCN(C)CC1` [Compound 40, 5-(1-isopropyl-5-(1-methylpiperidin-4-yl)-1H-pyrazol-3-yl)-3-(trifluoro-methyl)-1H-pyrrolo[2,3-b]pyridine], the Ki amounted to 0.00017 µM.

On to `CC(C)n1nc(-c2cnc(N)c(C(F)(F)F)c2)cc1C1CCN(C)CC1` [Compound 41, 5-(1-isopropyl-5-(1-methylpiperidin-4-yl)-1H-pyrazol-3-yl)-3-(trifluoromethyl)pyridin-2-amine], for which the Ki was 0.045 µM.

As for `Cc1c[nH]c2ncc(-c3cc(C4CCN(C)C(=O)C4)n(C4CC(F)(F)C4)n3)cc12` (stereo not shown) [Compound 42, 4-(1-(3,3-difluorocyclobutyl)-3-(3-meth-yl-1H-pyrrolo[2,3-b]pyridin-5-yl)-1H-pyrazol-5-yl)-1-methylpiperidin-2-one], the inhibition constant Ki stood at 0.25 µM.

`CN1CCC(c2cc(-c3cnc(N)c(Cl)c3)nn2C2CC(F)(F)C2)CC1=O` (stereo not shown) [Compound 43, 4-(3-(6-amino-5-chloropyridin-3-yl)-1-(3,3-difluorocyclobutyl)-1H-pyra-zol-5-yl)-1-methylpiperidin-2-one]: the Ki was 0.06 µM.

For the molecule `CN1CCC(c2cc(-c3cnc4[nH]cc(C(F)(F)F)c4c3)nn2C2CC(F)(F)C2)CC1=O` (stereo not shown) [Compound 45, 4-(1-(3,3-difluorocyclobutyl)-3-(3-(tri-fluoromethyl)-1H-pyrrolo[2,3-b]pyri-din-5-yl)-1H-pyrazol-5-yl)-1-meth-ylpiperidin-2-one], the Ki is 0.14 µM.

For `CC(C)n1nc(-c2cnc3[nH]cc(C#N)c3c2)cc1C1CCN(CC(F)(F)F)CC1` [Compound 46, 5-(1-isopropyl-5-(1-(2,2,2-trifluoroethyl)piperidin-4-yl)-1H-pyrazol-3-yl)-1H-pyrrolo[2,3-b]pyridine-3-carbonitrile], the Ki stood at 0.028 µM.

These data come from patent US10028942B2 (priority 2013, dated 2018).
